The test system of assay [1] is Enterococcus foecalis MGH2. The assay is described as follows: Antibacterial activity, microtitration dilution method. The class given is cell-based. The conditions noted are these: read-out: minimum inhibitory concentration (MIC). The text has this:
(§1) The compounds of the invention display antibacterial activity when tested by the microtitration dilution method as described in Heifetz, et al., Antimicr. Agents. & Chemoth. 6: 124 (1974) which is incorporated herein by reference.
(§2) By use of the above referenced method, the following minimum inhibitory concentration values (MICs in μg/mL) were obtained for representative compounds of the invention vs. clinically relevant gram positive pathogens which have become highly resistant to conventional therapy in recent years.

The test system of assay [2] is Staphylococcus aureus H228. The assay is described as above. The class given is cell-based. The note with it: read-out: minimum inhibitory concentration (MIC).
Description: as §1, §2

Assay [3] deals with Streptococcus pneumonia 5V-1. The assay is described as above. The class given is cell-based. The note with it: Streptococcus pneumoniae, 5V1, read-out: minimum inhibitory concentration (MIC).
Description: as §1, §2

Assay [4] deals with Staphylococcus aureus UC-76. The assay is described as above. The class given is cell-based. The conditions noted are these: UC76, read-out: minimum inhibitory concentration (MIC).
Description: as §1, §2

Assay [5] relates to Streptococcus pyogenes C203. The assay is described as above. The note with it: read-out: minimum inhibitory concentration (MIC). The class given is cell-based.
Description: as §1, §2

The next assay relates to HIV. The note with it: cell-free and cell-mediated HIV infection; cited from earlier work.

Molecules are shown by their SMILES. Converted amounts (≈) assume the structure as drawn.

Regarding `CC(C)CC(SC1CCCCC1)c1c(O)cc(-c2ccccc2)oc1=O` (racemic) [Example 142, 3-[l-(Cyclohexylthio)-3-methylbutyl]-4-hydroxy-6-phenyl-2H-pyran-2-one (±)], the MIC in assay [1] was found to be 25 µg/mL (≈ 67.1 µM); in assay [2], 12.5 µg/mL (≈ 33.6 µM); in assay [3], 25 µg/mL (≈ 67.1 µM); in assay [4], 12.5 µg/mL (≈ 33.6 µM); in assay [5], 25 µg/mL (≈ 67.1 µM).
For `CC(=O)CC(c1ccccc1)c1c(O)c2ccccc2oc1=O` (stereo not drawn) [Warfarin, 3-(α-acetonylbenzyl)-4-hydroxycoumarin], the “HIV infection inhibition (in words)” value with HIV is “inhibiting cell-free and cell-mediated HIV infection”.

These data come from patent US6005103A, “Pyrone derivatives as protease inhibitors and antiviral agents” (Warner-Lambert Company, priority 1994, dated 1999).
